Assay results as given in publication PMC10716637 (RSC Advances, 2023).
Where two headings read alike, the source gives them in different places.

Key:
[1] = system: MCF-7; test: MTT cytotoxicity assay, MCF-7; format: cell-based, human; conditions: for EC50: Homo sapiens, MCF7, read-out: EC50 MCF-7; for Selectivity index (SI): folds toxic in MCF-7 than in normal VERO cells: CC50 VERO vs EC50 MCF-7
[2] = system: HepG2; test: MTT cytotoxicity assay, HepG2; format: cell-based, human; conditions: for EC50: Homo sapiens, HepG2, read-out: EC50 HepG2; for Selectivity index (SI): folds more toxic respecting HepG2 than normal VERO cells: CC50 VERO vs EC50 HepG2
[3] = system: HCT116; test: MTT cytotoxicity assay, HCT116; format: cell-based, human; conditions: for EC50: Homo sapiens, HCT-116, read-out: EC50 HCT116; for Selectivity index (SI): folds lethalness in HCT-116 than in VERO cells: CC50 VERO vs EC50 HCT-116
[4] = system: A549; test: MTT cytotoxicity assay, A549; format: cell-based, human; conditions: for EC50: Homo sapiens, A549, read-out: EC50 A549; for Selectivity index (SI): folds toxicity in A549 than in VERO cells: CC50 VERO vs EC50 A549
[5] = target: EGFR^T790M (Homo sapiens, UniProt P00533, T790M); test: In vitro EGFR^T790M kinase inhibitory assay; format: biochemical
[6] = target: VEGFR-2 (Homo sapiens, UniProt P35968); test: In vitro VEGFR-2 kinase inhibitory assay; format: biochemical
[7] = target: EGFR^WT (Homo sapiens, UniProt P00533); test: In vitro EGFR^WT kinase inhibitory assay; format: biochemical
[8] = Cytotoxicity against VERO normal cell lines; conditions: African green monkey, VERO normal cells

EGFR^T790M, sequence (P00533 25-1210 T790M): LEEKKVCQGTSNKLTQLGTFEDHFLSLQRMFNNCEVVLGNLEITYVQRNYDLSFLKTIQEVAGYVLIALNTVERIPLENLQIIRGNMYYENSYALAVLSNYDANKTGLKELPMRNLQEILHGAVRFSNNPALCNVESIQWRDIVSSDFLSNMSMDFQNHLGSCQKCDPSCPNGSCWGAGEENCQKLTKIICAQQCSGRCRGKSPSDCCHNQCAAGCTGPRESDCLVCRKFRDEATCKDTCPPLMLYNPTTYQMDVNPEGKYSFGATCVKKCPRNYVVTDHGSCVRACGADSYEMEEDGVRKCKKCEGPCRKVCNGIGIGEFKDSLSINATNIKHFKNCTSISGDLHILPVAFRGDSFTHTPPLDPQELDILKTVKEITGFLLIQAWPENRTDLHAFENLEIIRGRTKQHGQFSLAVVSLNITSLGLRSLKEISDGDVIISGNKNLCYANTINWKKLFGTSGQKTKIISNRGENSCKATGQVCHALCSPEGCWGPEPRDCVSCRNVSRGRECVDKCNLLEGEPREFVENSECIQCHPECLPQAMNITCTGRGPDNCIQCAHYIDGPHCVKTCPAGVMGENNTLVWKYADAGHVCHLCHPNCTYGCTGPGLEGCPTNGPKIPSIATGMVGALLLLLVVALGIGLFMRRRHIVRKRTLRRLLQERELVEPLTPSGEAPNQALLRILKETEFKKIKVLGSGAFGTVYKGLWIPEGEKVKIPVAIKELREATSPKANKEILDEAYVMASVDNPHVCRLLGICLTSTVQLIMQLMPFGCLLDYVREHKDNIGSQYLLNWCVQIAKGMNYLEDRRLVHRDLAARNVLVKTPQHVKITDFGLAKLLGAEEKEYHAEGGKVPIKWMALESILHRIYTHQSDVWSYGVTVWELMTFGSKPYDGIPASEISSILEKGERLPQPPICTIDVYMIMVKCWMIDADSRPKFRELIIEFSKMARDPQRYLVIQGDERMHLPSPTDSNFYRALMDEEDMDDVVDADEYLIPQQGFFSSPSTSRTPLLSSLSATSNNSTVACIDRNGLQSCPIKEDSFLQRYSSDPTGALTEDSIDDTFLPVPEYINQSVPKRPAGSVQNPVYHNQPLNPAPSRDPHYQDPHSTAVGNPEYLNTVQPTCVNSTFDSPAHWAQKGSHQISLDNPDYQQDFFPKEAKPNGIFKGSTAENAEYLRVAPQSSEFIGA
VEGFR-2, sequence (P35968 20-1356): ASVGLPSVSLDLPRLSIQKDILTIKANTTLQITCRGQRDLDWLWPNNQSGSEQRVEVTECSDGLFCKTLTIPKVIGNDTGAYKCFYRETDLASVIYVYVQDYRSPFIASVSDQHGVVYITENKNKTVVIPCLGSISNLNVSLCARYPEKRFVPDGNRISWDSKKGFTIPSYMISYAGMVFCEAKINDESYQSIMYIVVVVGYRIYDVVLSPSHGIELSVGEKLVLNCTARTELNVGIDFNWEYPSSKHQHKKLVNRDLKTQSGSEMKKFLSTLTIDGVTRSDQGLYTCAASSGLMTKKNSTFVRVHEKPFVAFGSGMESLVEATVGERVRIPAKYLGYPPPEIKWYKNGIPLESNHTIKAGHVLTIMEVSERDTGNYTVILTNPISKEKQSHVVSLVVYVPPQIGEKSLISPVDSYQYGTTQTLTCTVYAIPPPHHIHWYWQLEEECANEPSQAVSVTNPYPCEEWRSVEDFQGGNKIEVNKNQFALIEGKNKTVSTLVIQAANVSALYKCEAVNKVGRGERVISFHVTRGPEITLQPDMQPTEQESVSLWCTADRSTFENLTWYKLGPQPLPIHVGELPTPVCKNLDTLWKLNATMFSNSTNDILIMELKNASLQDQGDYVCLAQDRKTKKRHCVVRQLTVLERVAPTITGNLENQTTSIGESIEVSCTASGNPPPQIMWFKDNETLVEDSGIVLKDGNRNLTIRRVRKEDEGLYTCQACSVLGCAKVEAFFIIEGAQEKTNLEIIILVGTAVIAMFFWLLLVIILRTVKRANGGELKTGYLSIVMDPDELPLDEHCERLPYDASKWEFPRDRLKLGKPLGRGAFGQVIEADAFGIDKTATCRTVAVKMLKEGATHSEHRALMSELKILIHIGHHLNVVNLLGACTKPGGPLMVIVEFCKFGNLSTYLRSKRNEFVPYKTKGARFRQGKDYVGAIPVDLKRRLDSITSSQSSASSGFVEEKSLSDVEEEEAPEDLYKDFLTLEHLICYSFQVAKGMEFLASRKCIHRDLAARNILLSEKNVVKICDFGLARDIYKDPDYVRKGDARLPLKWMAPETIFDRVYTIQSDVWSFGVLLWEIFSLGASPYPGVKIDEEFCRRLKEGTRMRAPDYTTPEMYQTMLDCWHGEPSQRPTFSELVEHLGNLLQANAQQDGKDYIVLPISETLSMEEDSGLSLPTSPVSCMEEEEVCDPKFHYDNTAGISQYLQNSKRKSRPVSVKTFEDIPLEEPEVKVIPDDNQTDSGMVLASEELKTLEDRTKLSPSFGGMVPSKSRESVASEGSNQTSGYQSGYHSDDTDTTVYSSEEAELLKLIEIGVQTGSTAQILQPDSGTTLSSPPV
EGFR^WT, sequence (P00533 25-1210): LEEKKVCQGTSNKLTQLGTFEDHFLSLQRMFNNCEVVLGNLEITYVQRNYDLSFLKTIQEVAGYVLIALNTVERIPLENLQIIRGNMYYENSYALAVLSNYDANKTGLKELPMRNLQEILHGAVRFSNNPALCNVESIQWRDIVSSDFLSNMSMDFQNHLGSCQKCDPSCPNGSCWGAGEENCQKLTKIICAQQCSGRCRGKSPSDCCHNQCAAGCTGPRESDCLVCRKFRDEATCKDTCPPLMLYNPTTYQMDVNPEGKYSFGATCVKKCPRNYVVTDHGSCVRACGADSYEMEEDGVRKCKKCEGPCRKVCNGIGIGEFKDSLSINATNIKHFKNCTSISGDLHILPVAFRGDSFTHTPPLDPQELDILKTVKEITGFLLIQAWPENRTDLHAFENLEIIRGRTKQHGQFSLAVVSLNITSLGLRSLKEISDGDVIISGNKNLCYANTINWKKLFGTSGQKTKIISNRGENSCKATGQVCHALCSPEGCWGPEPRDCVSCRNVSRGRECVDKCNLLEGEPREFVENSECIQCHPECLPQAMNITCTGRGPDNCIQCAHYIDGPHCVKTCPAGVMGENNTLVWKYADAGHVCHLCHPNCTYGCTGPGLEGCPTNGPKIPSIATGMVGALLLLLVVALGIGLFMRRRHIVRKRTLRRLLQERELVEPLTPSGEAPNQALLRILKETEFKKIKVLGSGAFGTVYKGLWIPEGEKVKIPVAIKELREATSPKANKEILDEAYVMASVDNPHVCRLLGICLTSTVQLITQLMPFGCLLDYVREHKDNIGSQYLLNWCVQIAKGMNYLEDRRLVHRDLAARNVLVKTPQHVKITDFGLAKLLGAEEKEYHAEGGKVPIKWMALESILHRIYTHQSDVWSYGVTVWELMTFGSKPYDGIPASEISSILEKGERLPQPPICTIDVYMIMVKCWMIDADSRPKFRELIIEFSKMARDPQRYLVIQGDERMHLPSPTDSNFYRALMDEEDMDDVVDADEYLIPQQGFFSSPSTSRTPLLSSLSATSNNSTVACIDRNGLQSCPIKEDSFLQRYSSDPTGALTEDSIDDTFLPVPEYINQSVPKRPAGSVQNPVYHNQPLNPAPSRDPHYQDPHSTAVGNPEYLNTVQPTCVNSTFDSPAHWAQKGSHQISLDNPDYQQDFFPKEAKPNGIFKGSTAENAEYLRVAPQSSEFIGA

Row | IC50 [5] | IC50 [6] | SMILES | EC50 [1] | EC50 [2] | EC50 [3] | EC50 [4] | IC50 [7] | CC50 [8] | Selectivity index (SI): folds toxic in MCF-7 than in normal VERO cells [1] | Selectivity index (SI): folds more toxic respecting HepG2 than normal VERO cells [2] | Selectivity index (SI): folds lethalness in HCT-116 than in VERO cells [3] | Selectivity index (SI): folds toxicity in A549 than in VERO cells [4] | IC50 ([5]; IC50 EGFR^T790M)
1 | 860 ± 500 nM | 2000 ± 250 nM | CCn1c(=O)n(CC(=O)Nc2ccc(C(=O)OC)cc2)c(=O)c2cc(I)ccc21 [Compound 5a, Methyl 4-{2-[1-ethyl-6-iodo-2,4-dioxo-1,4-dihydroquinazolin-3(2H)-yl]acetamido}benzoate] | 11.6 ± 0.7 µM | 12.5 ± 0.7 µM | 11.4 ± 0.7 µM | 8.45 ± 0.7 µM | – | – | – | – | – | – | –
2 | 800 ± 500 nM | 1500 ± 100 nM | CCOC(=O)c1ccc(NC(=O)Cn2c(=O)c3cc(I)ccc3n(CC)c2=O)cc1 [Compound 5b, Ethyl 4-{2-[1-ethyl-6-iodo-2,4-dioxo-1,4-dihydroquinazolin-3(2H)-yl]acetamido}benzoate] | 7.4 ± 0.7 µM | 7.59 ± 0.7 µM | 6.55 ± 0.7 µM | 6.78 ± 0.7 µM | – | – | – | – | – | – | –
3 | 920 ± 500 nM | 1500 ± 500 nM | CCCn1c(=O)n(CC(=O)Nc2ccc(C(=O)OC)cc2)c(=O)c2cc(I)ccc21 [Compound 5c, Methyl 4-{2-[6-iodo-2,4-dioxo-1-propyl-1,4-dihydroquinazolin-3(2H)-yl]acetamido}benzoate] | 7.96 ± 0.7 µM | 7.75 ± 0.7 µM | 6.93 ± 0.7 µM | 6.73 ± 0.7 µM | – | – | – | – | – | – | –
4 | 900 ± 500 nM | 1400 ± 200 nM | CCNC(=O)c1ccc(NC(=O)Cn2c(=O)c3cc(I)ccc3n(CC)c2=O)cc1 [Compound 6a, 4-{2-[1-Ethyl-6-iodo-2,4-dioxo-1,4-dihydroquinazolin-3(2H)-yl]acetamido}-N-ethylbenzamide] | 8.5 ± 0.8 µM | 7.8 ± 0.8 µM | 7.6 ± 0.8 µM | 7.95 ± 0.8 µM | – | – | – | – | – | – | –
5 | 600 ± 350 nM | 1650 ± 100 nM | CCCn1c(=O)n(CC(=O)Nc2ccc(C(=O)NC)cc2)c(=O)c2cc(I)ccc21 [Compound 6b, 4-{2-[6-Iodo-2,4-dioxo-1-propyl-1,4-dihydroquinazolin-3(2H)-yl]acetamido}-N-methylbenzamide] | 8.15 ± 0.8 µM | 8.5 ± 0.8 µM | 8.35 ± 0.8 µM | 6.7 ± 0.8 µM | – | – | – | – | – | – | –
6 | 1500 ± 500 nM | 2500 ± 250 nM | CCn1c(=O)n(CC(=O)Nc2ccc(C(=O)NN)cc2)c(=O)c2cc(I)ccc21 [Compound 7a, 2-(1-Ethyl-6-iodo-2,4-dioxo-1,4-dihydroquinazolin-3(2H)-yl)-N-(4-(hydrazinecarbonyl)phenyl)-acetamide] | 15.5 ± 1.5 µM | 16 ± 1.5 µM | 13.2 ± 1.5 µM | 13.7 ± 1.5 µM | – | – | – | – | – | – | –
7 | 2050 ± 500 nM | 2250 ± 250 nM | CCCn1c(=O)n(CC(=O)Nc2ccc(C(=O)NN)cc2)c(=O)c2cc(I)ccc21 [Compound 7b, N-[4-(hydrazinecarbonyl)phenyl]-2-(6-iodo-2,4-dioxo-1-propyl-1,4-dihydroquinazolin-3(2H)-yl)acetamide] | 13.9 ± 1.5 µM | 15.5 ± 1.5 µM | 15.9 ± 1.5 µM | 15.1 ± 1.5 µM | – | – | – | – | – | – | –
8 | 1000 ± 500 nM | 1500 ± 100 nM | CCn1c(=O)n(CC(=O)Nc2ccc(-c3nnc(S)o3)cc2)c(=O)c2cc(I)ccc21 [Compound 8a, 2-[1-Ethyl-6-iodo-2,4-dioxo-1,4-dihydroquinazolin-3(2H)-yl]-N-[4-(5-mercapto-1,3,4-oxadiazol-2-yl)phenyl]acetamide] | 8.25 ± 0.9 µM | 7.55 ± 0.9 µM | 7.25 ± 0.9 µM | 10.1 ± 0.9 µM | – | – | – | – | – | – | –
9 | – | – | C#Cc1cccc(Nc2ncnc3cc(OCCOC)c(OCCOC)cc23)c1 [Erlotinib, reference compound] | 13.9 ± 1.3 µM | 7.73 ± 0.67 µM | 8.2 ± 0.34 µM | 5.49 ± 0.45 µM | – | – | – | – | – | – | –
10 | – | – | CNC(=O)c1cc(Oc2ccc(NC(=O)Nc3ccc(Cl)c(C(F)(F)F)c3)cc2)ccn1 [Sorafenib, reference compound] | – | 4 ± 0.33 µM | 5.58 ± 0.55 µM | 4.04 ± 0.33 µM | – | – | – | – | – | – | –

Row | SMILES | IC50 [5] | IC50 [6] | EC50 [1] | EC50 [2] | EC50 [3] | EC50 [4] | IC50 [7] | CC50 [8] | Selectivity index (SI): folds toxic in MCF-7 than in normal VERO cells [1] | Selectivity index (SI): folds more toxic respecting HepG2 than normal VERO cells [2] | Selectivity index (SI): folds lethalness in HCT-116 than in VERO cells [3] | Selectivity index (SI): folds toxicity in A549 than in VERO cells [4] | IC50 ([5]; IC50 EGFR^T790M)
11 | CCCn1c(=O)n(CC(=O)Nc2ccc(C(=O)OCC)cc2)c(=O)c2cc(I)ccc21 [Compound 5d, Ethyl 4-{2-[6-iodo-2,4-dioxo-1-propyl-1,4-dihydroquinazolin-3(2H)-yl]acetamido}benzoate] | 400 ± 350 nM | 1250 ± 100 nM | 7.37 ± 0.7 µM | 7.5 ± 0.7 µM | 6.52 ± 0.7 µM | 6.68 ± 0.7 µM | 320 ± 30 nM | 46.6 ± 0.5 µM | 6.32 folds | 6.21 folds | 7.15 folds | 6.98 folds | –
12 | CCCn1c(=O)n(CC(=O)Nc2ccc(-c3nnc(S)o3)cc2)c(=O)c2cc(I)ccc21 [Compound 8b, 2-[6-Iodo-2,4-dioxo-1-propyl-1,4-dihydroquinazolin-3(2H)-yl]-N-[4-(5-mercapto-1,3,4-oxadiazol-2-yl)phenyl]acetamide] | 450 ± 350 nM | 1380 ± 100 nM | 7.45 ± 0.7 µM | 7.5 ± 0.7 µM | 6.75 ± 0.7 µM | 6.7 ± 0.5 µM | 380 ± 30 nM | 50.75 ± 0.5 µM | 6.81 folds | 6.77 folds | 7.52 folds | 7.57 folds | –
13 | CCn1c(=O)n(CC(=O)Nc2ccc(C(=O)NN=Cc3ccccc3)cc2)c(=O)c2cc(I)ccc21 [Compound 9a, N-[4-(2-benzylidenehydrazine-1-carbonyl)phenyl]-2-[1-ethyl-6-iodo-2,4-dioxo-1,4-dihydroquinazolin-3(2H)-yl]acetamide] | 750 ± 500 nM | 1000 ± 100 nM | 7.5 ± 0.7 µM | 6.8 ± 0.7 µM | 6.29 ± 0.7 µM | 6.75 ± 0.7 µM | – | 45.5 ± 0.5 µM | 6.07 folds | 6.69 folds | 7.23 folds | 6.74 folds | 1500 nM
14 | CCn1c(=O)n(CC(=O)Nc2ccc(C(=O)NN=Cc3ccc(C)cc3)cc2)c(=O)c2cc(I)ccc21 [Compound 9b, 2-[1-Ethyl-6-iodo-2,4-dioxo-1,4-dihydroquinazolin-3(2H)-yl]-N-{4-[2-(4-methylbenzylidene)hydrazine-1-carbonyl]phenyl}acetamide] | 500 ± 350 nM | 900 ± 100 nM | 6.7 ± 0.6 µM | 6.2 ± 0.7 µM | 5.93 ± 0.6 µM | 6.75 ± 0.6 µM | 350 ± 30 nM | 49.2 ± 0.5 µM | 7.35 folds | 7.94 folds | 8.31 folds | 7.30 folds | –
15 | CCn1c(=O)n(CC(=O)Nc2ccc(C(=O)NN=Cc3ccc(OC)cc3)cc2)c(=O)c2cc(I)ccc21 [Compound 9c, 2-[1-Ethyl-6-iodo-2,4-dioxo-1,4-dihydroquinazolin-3(2H)-yl]-N-{4-[2-(4-methoxybenzylidene)-hydrazine-1-carbonyl]phenyl}acetamide] | 220 ± 300 nM | 850 ± 100 nM | 6 ± 0.5 µM | 5 ± 0.5 µM | 5.17 ± 0.5 µM | 5.25 ± 0.5 µM | 150 ± 30 nM | 55 ± 0.5 µM | 9.17 folds | 11.00 folds | 10.64 folds | 10.48 folds | –
16 | CCCn1c(=O)n(CC(=O)Nc2ccc(C(=O)NN=Cc3ccccc3)cc2)c(=O)c2cc(I)ccc21 [Compound 9d, N-[4-(2-benzylidenehydrazine-1-carbonyl)phenyl]-2-[6-iodo-2,4-dioxo-1-propyl-1,4-dihydroquinazolin-3(2H)-yl]acetamide] | 260 ± 300 nM | 900 ± 100 nM | 6.45 ± 0.5 µM | 5.65 ± 0.5 µM | 6.5 ± 0.5 µM | 5.48 ± 0.5 µM | 200 ± 30 nM | 50.39 ± 0.5 µM | 7.81 folds | 8.92 folds | 7.75 folds | 9.20 folds | –
17 | CCCn1c(=O)n(CC(=O)Nc2ccc(C(=O)NN=Cc3ccc(Cl)cc3)cc2)c(=O)c2cc(I)ccc21 [Compound 9e, N-{4-[2-(4-chlorobenzylidene)hydrazine-1-carbonyl]phenyl}-2-{6-iodo-2,4-dioxo-1-propyl-1,4-dihydroquinazolin-3(2H)-yl}acetamide] | 300 ± 300 nM | 1200 ± 100 nM | 7.3 ± 0.7 µM | 7.36 ± 0.7 µM | 6.7 ± 0.7 µM | 6.3 ± 0.7 µM | 250 ± 30 nM | 46 ± 0.5 µM | 6.30 folds | 6.25 folds | 6.87 folds | 7.30 folds | –
